Laboratory results published in paper PMC12567347, “Angiotensin II/Angiotensin I Ratio as a New Pharmacodynamic Parameter for Population Modelling in Healthy Adults and Children with Heart Failure Treated with Enalapril” (Pharmaceutics, 2025).

What was measured:
[1] = target: T1, angiotensin-converting enzyme (ACE) (Homo sapiens, UniProt P12821); assay: Percentage change in the angiotensin II/angiotensin I ratio four hours after the initial enalapril dose in children with heart failure; assay type: in vivo; settings: eight children with heart failure, four hours after first dose, median 0.06 mg/kg enalapril maleate
T1 construct: from tissue; host or cells: in vivo in human subjects; ACE activity read indirectly from the plasma angiotensin II/angiotensin I ratio
Experimental: In the pharmacokinetic bridging studies, a pharmacokinetic/pharmacodynamic profile was usually obtained in ACE inhibitor-naïve subjects at the initial dose visit, with pharmacokinetic samples collected before and 1, 2, 4, 6, and 12 h after enalapril orodispersible minitablet administration, as well as pharmacodynamic samples collected before and 4 h after administration. Alternatively, the pharmacokinetic/pharmacodynamic profile could also be obtained after reaching steady state at the optimal dose. In this case, the 12 h pharmacokinetic sample was omitted. Single pharmacokinetic and pharmacodynamic samples were collected in immediate succession during the remaining study visits. […]
For the simultaneous determination of several angiotensin peptides, including angiotensin I and angiotensin II, a validated multiplex liquid chromatography high-resolution mass spectrometry method was applied. Following precipitation and solid-phase extraction, the samples were analyzed using a Nexera XR liquid chromatography system (Shimadzu, Duisburg, Germany) coupled to a TripleTOF® 6600 mass spectrometer from AB Sciex (Concord, ON, Canada). […]
The percentage change in the angiotensin II/angiotensin I ratio was calculated in children with heart failure in whom an angiotensin II/angiotensin I ratio was available before the first dose of enalapril and four hours afterwards.

[2] = system: ACE activity; set-up: method as in PMID 8512763; settings: eight infants with congestive heart failure, after four hours, single dose of 0.25 mg/kg enalapril maleate; cited from earlier work
[3] = Serum enalaprilat concentrations in children with heart failure treated with enalapril orodispersible minitablets; assay type: in vivo, human; settings: median first dose 0.06 mg/kg, median daily dose 0.11 mg/kg enalapril maleate
Experimental: For the studies, a dosing regimen with age- and weight-dependent recommended titration doses, target doses, and maximum doses was developed using physiologically based pharmacokinetic simulation (Table S2). The appropriate dosage for each subject was selected based on the judgment of the investigator. Daily doses ≤ 0.25 mg were administered once daily in the morning, and daily doses > 0.25 mg were administered in two equal divided doses in the morning and evening. The required number of orodispersible minitablets with 0.25 mg enalapril maleate or 1 mg enalapril maleate (now approved as Aqumeldi®, Proveca Pharma Limited, Dublin, Ireland) was placed in the patient’s cheek pouch. The orodispersible minitablets rapidly disintegrated into small, easily swallowable particles. To facilitate swallowing, a fluid of the patient’s/parent’s choice (e.g., breast milk, formula milk, cow milk, water) could be administered.
In the pharmacokinetic bridging studies, a pharmacokinetic/pharmacodynamic profile was usually obtained in ACE inhibitor-naïve subjects at the initial dose visit, with pharmacokinetic samples collected before and 1, 2, 4, 6, and 12 h after enalapril orodispersible minitablet administration, as well as pharmacodynamic samples collected before and 4 h after administration. […]

[4] = set-up: method as in PMID 26256099; settings: parameters estimated in children extrapolated to an adult weight of 70 kg; cited from earlier work

T1 sequence (P12821 30-1306): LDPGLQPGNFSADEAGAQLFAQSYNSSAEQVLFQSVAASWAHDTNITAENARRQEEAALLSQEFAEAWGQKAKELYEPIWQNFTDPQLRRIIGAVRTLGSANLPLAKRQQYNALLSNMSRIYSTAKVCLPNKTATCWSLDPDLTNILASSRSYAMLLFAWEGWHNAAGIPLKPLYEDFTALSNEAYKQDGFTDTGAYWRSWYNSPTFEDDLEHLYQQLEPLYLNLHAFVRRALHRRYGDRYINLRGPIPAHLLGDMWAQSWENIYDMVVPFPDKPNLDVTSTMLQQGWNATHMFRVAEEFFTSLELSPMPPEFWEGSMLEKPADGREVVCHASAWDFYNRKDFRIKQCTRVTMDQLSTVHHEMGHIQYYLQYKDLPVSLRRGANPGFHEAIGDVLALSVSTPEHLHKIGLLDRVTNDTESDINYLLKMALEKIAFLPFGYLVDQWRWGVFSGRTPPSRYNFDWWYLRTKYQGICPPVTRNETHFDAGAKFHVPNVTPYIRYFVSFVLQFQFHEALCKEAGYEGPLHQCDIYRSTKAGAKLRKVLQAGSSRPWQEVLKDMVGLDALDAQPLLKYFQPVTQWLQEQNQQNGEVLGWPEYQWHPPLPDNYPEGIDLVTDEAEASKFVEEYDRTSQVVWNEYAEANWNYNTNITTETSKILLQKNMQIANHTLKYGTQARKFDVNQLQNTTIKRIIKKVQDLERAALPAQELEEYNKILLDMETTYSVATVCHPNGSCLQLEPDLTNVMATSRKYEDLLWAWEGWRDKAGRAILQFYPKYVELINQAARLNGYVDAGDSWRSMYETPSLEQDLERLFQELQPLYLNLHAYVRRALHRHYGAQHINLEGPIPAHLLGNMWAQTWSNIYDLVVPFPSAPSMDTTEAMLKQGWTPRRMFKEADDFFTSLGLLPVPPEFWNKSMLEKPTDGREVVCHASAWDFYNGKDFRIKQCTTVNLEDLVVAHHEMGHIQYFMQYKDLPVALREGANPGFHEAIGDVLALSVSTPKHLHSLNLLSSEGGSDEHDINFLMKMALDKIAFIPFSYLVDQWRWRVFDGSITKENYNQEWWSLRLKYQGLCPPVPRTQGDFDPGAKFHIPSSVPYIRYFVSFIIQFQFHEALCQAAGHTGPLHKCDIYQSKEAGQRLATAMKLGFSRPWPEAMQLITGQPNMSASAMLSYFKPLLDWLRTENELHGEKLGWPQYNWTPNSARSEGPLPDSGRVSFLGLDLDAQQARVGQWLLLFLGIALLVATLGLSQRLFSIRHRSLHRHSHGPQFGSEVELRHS

| Compound | decrease in angiotensin II/angiotensin I ratio, median [1] | decrease in angiotensin II/angiotensin I ratio, range [1] | mean inhibition of ACE activity [2] | highest measured enalaprilat concentration [3] | apparent central volume of distribution of enalaprilat [4] | apparent clearance of enalaprilat [4] |
| --- | --- | --- | --- | --- | --- | --- |
| CCOC(=O)[C@H](CCc1ccccc1)N[C@@H](C)C(=O)N1CCC[C@H]1C(=O)O [enalapril] | 79.3% | 21.4–92.7% | 75.5% | – | – | – |
| C[C@H](N[C@@H](CCc1ccccc1)C(=O)O)C(=O)N1CCC[C@H]1C(=O)O [enalaprilat] | – | – | – | 18.3 µg/L | 168.8 L | 18.2 L/h |
